In US11873306B1, “Nano-sized 5,10,15,20-tetrakis (4-hydroxyphenyl)-porphyrins pd(II) complex for super medicinal applications” (KING FAISAL UNIVERSITY, priority 2023, dated 2024):
≈ marks a conversion by molar mass, not a printed value. Like-named read-outs stand apart in the source and are kept apart here. Values belong to the compound of their own block, whether it stands above or below them.

Assays:
Aspergillus flavus = assay: Antifungal activity, Aspergillus flavus (inhibition zone and MIC); format: cell-based; details: Aspergillus flavus fungi
breast cancer cell line [1] = assay: Anti-cancer activity, breast cancer cell line; format: cell-based, human
breast cancer cell line [2] = assay: Antioxidant activity; format: cell-based; details: against a breast cancer cell line
Microccus luteus = assay: Antimicrobial activity, Microccus luteus (inhibition zone and MIC); format: cell-based
[3] = test system: Colon carcinoma cells (HCT-116 cell line); assay: Anti-cancer activity, colon carcinoma cells; format: cell-based
E. coli = assay: Antimicrobial activity, E. coli (inhibition zone and MIC); format: cell-based; details: E. coli bacteria
[4] = Homo sapiens, read-out: IC50 (anticancer activity)

Compound: 5,10,15,20-Tetrakis (4-hydroxyphenyl)-Porphyrins Pd(II) complex [prepared complex]
MIC (Aspergillus flavus): 1.75 µg/mL
inhibition zone (Aspergillus flavus): 23.25 mm
inhibition zone (Aspergillus flavus; listed as present complex): about 23.25 mm
IC50 (anticancer activity) (breast cancer cell line [1]): 4.5 µg/mL
IC50 (antioxidant activity) (breast cancer cell line [2]): 10.5 µg/mL
MIC (Microccus luteus): 0.75 µg/mL
inhibition zone (Microccus luteus): 41.5 mm
inhibition zone (Microccus luteus; listed as present complex): about 41.5 mm
IC50 (anticancer activity) [3]: 4.9 µg/mL
MIC (E. coli): 1.5 µg/mL
inhibition zone (E. coli; listed as prepared nano complex): 33 mm
inhibition zone (E. coli; listed as present complex): about 33 mm

Compound: O=C1O[C@H]([C@@H](O)CO)C(O)=C1O [1-ascorbic acid, reference compound]
IC50 (antioxidant activity) (breast cancer cell line [2]): 55.2 µg/mL (≈ 313 µM)

MIC (Aspergillus flavus; read-out: MIC): 2.5 µg/mL (≈ 8.16 µM)
Compound: OC(Cn1cncn1)(Cn1cncn1)c1ccc(F)cc1F [Fluconazol, reference compound]
inhibition zone (Aspergillus flavus): 22.00 mm

Compound: CC1COc2c(N3CCN(C)CC3)c(F)cc3c(=O)c(C(=O)O)cn1c23 (stereo not drawn) [Ofloxacin, reference compound]
inhibition zone (Microccus luteus): 39.75 mm
MIC (Microccus luteus; read-out: MIC): 1.25 µg/mL (≈ 3.46 µM)
inhibition zone (E. coli): 30 mm
MIC (E. coli; Escherichia coli, read-out: MIC): 2.25 µg/mL (≈ 6.23 µM)

IC50 (breast cancer cell line [1]; [4]): 5.2 µg/mL (≈ 6.41 µM)
IC50 [3, 4]: 5.41 µg/mL (≈ 6.67 µM)
Compound: CC[C@]1(O)C[C@@H]2CN(CCc3c([nH]c4ccccc34)[C@@](C(=O)OC)(c3cc4c(cc3OC)N(C)[C@H]3[C@@](O)(C(=O)OC)[C@H](OC(C)=O)[C@]5(CC)C=CCN6CC[C@]43[C@@H]65)C2)C1 [vinblastine, reference compound]
